In PMC10882993, “Protecting the Achilles heel: three FolE_I-type GTP-cyclohydrolases needed for full growth of metal-resistant Cupriavidus metallidurans under a variety of conditions” (Journal of Bacteriology, 2024) one finds IC50 data, which are given here for 4 compounds.

Common to all, as to experiment: microbe, parasite or virus in culture
In test [1] the test system is T1, Cupriavidus metallidurans AE104.
T1 construct: AE104
Also noted: growth inhibition of bacterial culture by metal chelators. The source says:
EDTA, membrane-permeant TPEN, and DIP complex divalent transition metal cations with similar stability constants, EDTA with Cu > Ni > Zn > Co > Fe = Mn, TPEN with a similar ranking but higher stability constants, and DIP with Cu = Fe > Zn in an inverted arrangement ([43][–][45]). The ∆folE single and double mutants grew with only a slight delay compared to the parental strain AE104 in the presence of TPEN (Fig. S8), and the IC50 values for the ∆folE single mutants and TPEN were not different from that of the parent AE104 (Table S8). When the gene for the zinc importer ZupT was deleted, the IC50 values of all strains decreased below 0.5 µM TPEN, again without differences between the mutants and the ∆zupT parent (Fig. S8C). […] Due to large deviations, not much influence of TPEN on the growth of the ∆folE mutants could be measured. […] In contrast, TPEN mediated an overall decrease of metal availability. In the presence of DIP, growth of both ∆folE_IB mutants of strain AE104 was similar to their parent, but the ∆folE_IA mutant was more sensitive to DIP (Fig. S9A) with a decrease in the IC50 value from about 60 µM to 36 ± 7 µM (Table S8). The zinc content of the four strains in the presence of 25 µM DIP was similar, but the cobalt content was decreased (Table S6). […]

The test system is the same in test [2]. More on the design: growth inhibition of bacterial culture by oxidative stress agents. The conditions noted are these: read-out: PQ.
For test [3] the test system is unchanged. More on the design: growth inhibition of bacterial culture, final turbidity in TMM medium. As to conditions: read-out: TMP,. As for the experimental part: Trimethoprim and sulfonamide interfere with THF biosynthesis in steps downstream of the reaction catalyzed by the FolE_I-type enzymes. Neither substance induced an up-regulation of folE_IB1 or folE_IA (Table S2), but TMP did induce expression of pfl-glyA (Table S1). The ∆folE_IB1 mutant of strain AE104 was less resistant to trimethoprim than its wild-type parent or the other two ∆folE deletion mutants (Fig. 7A), and the IC50 for trimethoprim decreased from 4 to 3.3 mg/L (Table S9). Resistance to trimethoprim was not affected in the ∆folE_IB2 ∆folE_IA mutant with FolE_IB1 only, but it was in the two double mutants that carried a ∆folE_IB1 deletion (Fig. 7). Resistance to TMP decreased in the ∆zupT ∆folE_IB1 but not in the ∆zur ∆folE_IB1 mutant (Fig. 7B and C). […] Since TMP decreased the concentration of fTHF as shown by the up-regulation of pfl-glyA-lacZ expression, an increased folate production was needed to counteract inhibition of a later step of folate biosynthesis by TMP. This explains the need for the activity of both FolE_IA and FolE_IB1 to resist TMP inhibition. […] Final turbidity of C. metallidurans strains in medium zinc TMM containing varying concentrations of trimethoprim is shown for derivatives of strain AE104 single (panel A) and double (panel B) mutants, ∆zupT (panel C), and ∆zur single mutants (panel D). […]

The structures appear in SMILES notation. In brackets after ≈: the same amount, converted by molar mass. Read-outs that look alike come from different tables or passages of the source.

Consider `c1ccc(CN(CCN(Cc2ccccn2)Cc2ccccn2)Cc2ccccn2)nc1` [TPEN, N,N,N′,N′-tetrakis(2-pyridinylmethyl)-1,2-ethanediamine], for which the IC50 in test [1] (read-out: TPEN) stood at 1.1 ± 0.4 µM. Regarding `C[n+]1ccc(-c2cc[n+](C)cc2)cc1` [PQ, paraquat], the IC50 in test [2] worked out at 181 ± 17 µM. Take `COc1cc(Cc2cnc(N)nc2N)cc(OC)c1OC` [TMP, trimethoprim]: the IC50 in test [3] stood at 4 ± 0.2 µg/mL (≈ 13.8 µM). In the case of `c1ccc(-c2ccccn2)nc1` [DIP, dipyridyl], the IC50 in test [1] (read-out: DIP) is 57 ± 4 µM.
